Converted amounts (≈) assume the structure as drawn. Structures can show the parent of a compound that is named as a salt. Where two headings read alike, the source gives them in different places.
What was measured:
Type in all cases: cell-based
[1] = tested on: S. uberis ATCC 19436; test: MIC by broth microdilution, S. uberis; conditions: Streptococcus uberis
In short: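 Streptococcus uberis ATCC 19436 was tested in Todd Hewitt Broth by broth microdilution in 96-well flat bottom plates, in biological triplicate. Overnight cells were diluted to OD600 of approximately 0.025, giving about 5×10^5 cfu/mL in the wells. Compounds were serially diluted two-fold to 200 μl, incubated 24 h at 37° C. and 200 rpm, and the MIC was taken from OD600.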

[2] = tested on: S. aureus ATCC 6538; test: MIC by broth microdilution, S. aureus; conditions: Staphylococcus aureus
In short: (§1)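 Overnight cultures diluted to ~5×10^5 cfu/mL final; S. aureus in TSB and CAMHB, E. coli in LB and CAMHB, zinc sulphate to 50 μM final as required; two-fold serial dilutions. MIC = lowest concentration with no growth by OD600 after 24 h, 37° C, 200 rpm. MBC by Miles-Misra drop-plate viability count.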

[3] = tested on: E. coli ATCC 10596; test: MIC by broth microdilution, E. coli; conditions: Escherichia coli
In short: as §1

[4] = tested on: S. uberis ATCC 19436; test: MBC by Miles-Misra drop-plate method, S. uberis; conditions: Streptococcus uberis
Description: (§2) Antibacterial susceptibility testing was performed in triplicate (biological) by measuring minimum inhibitory concentrations (MICs) by broth microdilution in 96-well flat bottom microtiter plates (ThermoFisher Scientific, New Zealand). S. uberis ATCC 19436, S. aureus ATCC 6538, or E. coli ATCC 10596 cells grown overnight were diluted to an OD600 of approximately 0.025, so that the final concentration of cells in the MIC assay was approximately 5×10^5 cfu/mL in media as follows: S. uberis; Todd Hewitt Broth (THB), S. aureus; Tryptic Soy Broth (TSB) and Cation Adjusted Muller Hinton Broth (CAMHB), and E. coli; Lysogeny Borth (LB) and CAMHB, before being dispensed into microtiter wells. As required additional sterile Zinc Sulphate (Heptahydrate) was supplemented into the media, so the final concentration was 50 μM. Test compounds were added to starting wells and two-fold serial dilutions were undertaken to generate a range of inhibitor concentrations at a final volume of 200 μl. Media and test compound-free (untreated) controls were included in each microtiter plate in triplicate. After 24 h incubation at 37° C. and 200 rpm, the OD600 of wells were read using a Varioskan Flash plate reader (ThermoFisher Scientific, New Zealand). The MIC was reported as the lowest concentration of the test compound for which no growth occurred, as determined by OD600 readings. The minimum bactericidal concentration (MBC) was determined using the Miles-Misra drop-plate method to measure the viability of cells in response to test compound challenge.

[5] = tested on: S. aureus ATCC 6538; test: MBC by Miles-Misra drop-plate method, S. aureus; conditions: Staphylococcus aureus
Description: as §2

[6] = tested on: E. coli ATCC 10536; test: MBC by Miles-Misra drop-plate method, E. coli; conditions: Escherichia coli
Description: as §2

[7] = ATCC19436, read-out: S. uberis ATCC 19436 MIC, No Zinc
[8] = ATCC19436, read-out: S. uberis ATCC 19436 MIC, Zinc (50 μM)
[9] = ATCC6538, read-out: S. aureus ATCC 6538 MIC, No Zinc
[10] = ATCC6538, read-out: S. aureus ATCC 6538 MIC, Zinc (50 μM)
[11] = ATCC 10536 / ATCC 10596, read-out: E. coli ATCC 10536 MIC, No Zinc
[12] = ATCC 10536 / ATCC 10596, read-out: E. coli ATCC 10536 MIC, Zinc (50 μM)
[13] = ATCC19436, read-out: S. uberis ATCC 19436 MBC, No Zinc
[14] = ATCC19436, read-out: S. uberis ATCC 19436 MBC, Zinc (50 μM)
[15] = ATCC6538, read-out: S. aureus ATCC 6538 MBC, No Zinc
[16] = ATCC6538, read-out: S. aureus ATCC 6538 MBC, Zinc (50 μM)
[17] = ATCC10536, read-out: E. coli ATCC 10536 MBC, No Zinc
[18] = ATCC10536, read-out: E. coli ATCC 10536 MBC, Zinc (50 μM)

Row | SMILES | MIC [1, 7] | MIC [1, 8] | MIC [2, 9] | MIC [2, 10] | MIC [3, 11] | MIC [3, 12] | MBC [4, 13] | MBC [4, 14] | MBC [5, 15] | MBC [5, 16] | MBC [6, 17] | MBC [6, 18] | also measured
1 | N=C(N)NCc1ccc2cccc(NS(=O)(=O)c3ccc(C(F)(F)F)cc3)c2n1 [ZDR187, N-(2-(Guanidinomethyl)quinolin-8-yl)-4-(trifluoromethyl)benzenesulfonamide trifluoroacetate] | 16 µg/mL | 0.5 µg/mL | 8 µg/mL | 8 µg/mL | 32 µg/mL | 16 µg/mL | 16 µg/mL | 8 µg/mL | 32 µg/mL | 32 µg/mL | 64 µg/mL | 16 µg/mL | 
2 | CN(C)CCCNC(=O)c1ccc2cccc(NS(=O)(=O)c3ccc(C(F)(F)F)cc3)c2n1 [ZDR224, N-(3-(Dimethylamino)propyl)-8-((4-(trifluoromethyl)phenyl)sulfonamido)quinoline-2-carboxamide trifluoroacetate] | 64 µg/mL | 16 µg/mL | 128 µg/mL | 32 µg/mL | 256 µg/mL | 256 µg/mL | 64 µg/mL | 8 µg/mL | 128 µg/mL | 32 µg/mL | > 256 µg/mL | 256 µg/mL | 
3 | CN(C)CCCNC(=O)CNCc1ccc2cccc(NS(=O)(=O)c3ccc(C(F)(F)F)cc3)c2n1 [ZDR261, N-(3-(Dimethylamino)propyl)-2-(((8-((4-(trifluoromethyl)phenyl)sulfonamido)quinolin-2-yl)methyl)amino)acetamide di-trifluoroacetate] | 32 µg/mL (≈ 61.1 µM) | 16 µg/mL (≈ 30.6 µM) | 32 µg/mL (≈ 61.1 µM) | 32 µg/mL (≈ 61.1 µM) | 64 µg/mL (≈ 122 µM) | 64 µg/mL (≈ 122 µM) | 16 µg/mL (≈ 30.6 µM) | 16 µg/mL (≈ 30.6 µM) | 128 µg/mL (≈ 244 µM) | 64 µg/mL (≈ 122 µM) | > 256 µg/mL | > 256 µg/mL | 
4 | O=C(CNCc1ccc2cccc(NS(=O)(=O)c3ccc(C(F)(F)F)cc3)c2n1)NCCN1CCCCC1 [ZDR269, N-(2-(Piperidin-1-yl)ethyl)-2-(((8-((4-(trifluoromethyl)phenyl)sulfonamido)quinolin-2-yl)methyl)amino)acetamide di-trifluoroacetate] | 4 µg/mL (≈ 7.28 µM) | 8 µg/mL (≈ 14.6 µM) | 32 µg/mL (≈ 58.2 µM) | 64 µg/mL (≈ 116 µM) | 64 µg/mL (≈ 116 µM) | 64 µg/mL (≈ 116 µM) | 4 µg/mL (≈ 7.28 µM) | 16 µg/mL (≈ 29.1 µM) | 64 µg/mL (≈ 116 µM) | 128 µg/mL (≈ 233 µM) | 64 µg/mL (≈ 116 µM) | 64 µg/mL (≈ 116 µM) | 
5 | CN(C)Cc1ccc2cccc(NS(=O)(=O)c3ccc(Cl)cc3Cl)c2n1 [ZDR335, 2,4-Dichloro-N-(2-((dimethylamino)methyl)quinolin-8-yl)benzenesulfonamide] |  |  |  |  |  |  |  |  |  |  |  |  | MIC ([1]; ATCC19436, No Zinc, read-out: S. uberis ATCC 19436 MIC): 64 µg/mL (≈ 156 µM); MIC ([1]; ATCC19436, Zinc (50 μM), read-out: S. uberis ATCC 19436 MIC): 0.0312 µg/mL (≈ 0.076 µM); MIC ([2]; ATCC6538, No Zinc, read-out: S. aureus ATCC 6538 MIC): 32 µg/mL (≈ 78 µM); MIC ([2]; ATCC6538, Zinc (50 μM), read-out: S. aureus ATCC 6538 MIC): 8 µg/mL (≈ 19.5 µM); MIC ([3]; ATCC 10536 / ATCC 10596, No Zinc, read-out: E. coli ATCC 10536 MIC): > 256 µg/mL; MIC ([3]; ATCC 10536 / ATCC 10596, Zinc (50 μM), read-out: E. coli ATCC 10536 MIC): > 256 µg/mL; MBC ([4]; ATCC19436, No Zinc, read-out: S. uberis ATCC 19436 MBC): 64 µg/mL (≈ 156 µM); MBC ([4]; ATCC19436, Zinc (50 μM), read-out: S. uberis ATCC 19436 MBC): 2 µg/mL (≈ 4.87 µM); MBC ([5]; ATCC6538, No Zinc, read-out: S. aureus ATCC 6538 MBC): > 256 µg/mL; MBC ([5]; ATCC6538, Zinc (50 μM), read-out: S. aureus ATCC 6538 MBC): > 256 µg/mL; MBC ([6]; ATCC10536, No Zinc, read-out: E. coli ATCC 10536 MBC): > 256 µg/mL; MBC ([6]; ATCC10536, Zinc (50 μM), read-out: E. coli ATCC 10536 MBC): > 256 µg/mL
